Test [1] concerns TLR7 induced IL-6 secretion in human mononuclear cells (PBMC's). In words: TLR7 induced IL-6 in human PBMC's. The test is classed as cell-based. Conditions: TLR7 specific ligand 2 uM overnight, IL-6 AlphaLISA. The protocol:
TLR7 Induced IL-6 in Human PBMC's
Human PBMC assay was used as one of the functional assaya to monitor the activity of IRAK1 and IRAK4 small molecule inhibitors on TLR7 induced IL-6 secretion in human mononuclear cells (PBMC's). Human PBMCs were prepared from buffy coats (whole blood enriched with leukocytes and platelets) obtained from healthy volunteers used either fresh or frozen are plated in assay media (RPMI+2% P/S/L-glu+10% HI-FBS) and pre-treated with compounds in DMSO/media (range of concentrations from 25 uM to 0.4 nM) or controls (0.25% DMSO) for 30 minutes at 37° C. in assay media. Following pre-treatment with IRAK1 and IRAK4 inhibitors, PBMC's were stimulated with TLR7 specific ligand (2 uM) overnight (16-18 hrs) at 37° C. After incubation supernatant was transferred to 384 well PE AlphaPlate-384 (6005350) and IL-6 is quantified using Perkin Elmer IL-6 Alpha LISA kit (AL223C). Plates were read on an Envision® plate reader with Alpha Technology®.
A general note: Bead proximity is the source of the signal in Alpha formats.

In test [2] the target is T1, IRAK4 (Homo sapiens, UniProt Q9NWZ3).
T1 construct: His-TEV-IRAK4 (1-460); His (N); TEV cleavage site (N)
T1 sequence (Q9NWZ3 1-460): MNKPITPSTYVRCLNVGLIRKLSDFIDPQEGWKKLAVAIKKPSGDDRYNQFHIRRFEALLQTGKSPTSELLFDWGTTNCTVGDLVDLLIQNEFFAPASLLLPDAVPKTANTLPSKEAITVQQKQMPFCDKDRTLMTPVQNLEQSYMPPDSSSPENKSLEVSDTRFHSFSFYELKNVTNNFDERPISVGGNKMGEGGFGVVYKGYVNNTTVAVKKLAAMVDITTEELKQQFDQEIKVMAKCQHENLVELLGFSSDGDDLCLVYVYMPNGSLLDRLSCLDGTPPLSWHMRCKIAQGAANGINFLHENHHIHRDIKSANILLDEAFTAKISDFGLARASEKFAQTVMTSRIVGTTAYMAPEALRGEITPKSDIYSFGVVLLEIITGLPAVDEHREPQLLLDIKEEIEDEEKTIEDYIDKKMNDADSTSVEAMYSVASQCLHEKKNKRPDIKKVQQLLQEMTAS
In words: IRAK4 enzymatic assay (ADP-Glo luminescence). The settings on record: human recombinant His-TEV-IRAK4 (1-460), STK1-biotin peptide substrate. The test is classed as biochemical. The protocol: IRAK4 is a human purified recombinant enzyme (His-TEV-IRAK4 (1-460)).
In this assay, IRAK4 hydrolyses ATP, autophosphorylates and phosphorylates a Serine/Threonine generic peptidic substrate (STK: 61ST1BLC from CisBio International). Measurement of IRAK-4 inhibition is performed in 384-well format based on a luminescence assay (ADP-Glo™ Kinase Assay from Promega). Purified human recombinant IRAK4 ([…]) and serial diluted compounds in DMSO (range of concentration from 10 μM to 0.5 nM) or controls (1% DMSO) are incubated for 15 minutes at RT in assay buffer containing 50 mM Hepes pH 7.0, Fatty acid-free BSA 0.1%, Dithiothreitol (DTT) 2 mM, MgCl2 10 mM, EGTA 0.5 mM, Triton X-100 0.01%, MnCl2 5 mM. The kinase reaction is then initiated by the addition of ATP ([…]) and the peptidic substrate STK1-biotin peptide (300 nM). After 2 hours of incubation at RT, the reaction is stopped and the unconsumed ATP depleted by the addition of ADP-Glo™ Reagent according to supplier instructions. After 40 minutes of incubation at RT, the Kinase Detection Reagent is then added to the assay plate according to supplier instructions. After 20 minutes of incubation at RT, the luminescence signal is measured with a plate-reading luminometer (PerkinElmer Envision or equivalent reader).

The target of test [3] is T2, IRAK1 (Homo sapiens, UniProt P51617).
T2 construct: His-TEV-IRAK1 (194-712); His (N); TEV cleavage site (N)
In words: IRAK1 enzymatic assay (ADP-Glo luminescence). The test is classed as biochemical. The settings on record: human recombinant His-TEV-IRAK1 (194-712), ATP 1 μM; read-out: IRAK 1 IC50. The protocol:
IRAK1 is a human purified recombinant enzyme (His-TEV-IRAK1 (194-712))
In this assay, IRAK1 hydrolyses ATP and autophosphorylates. Measurement of IRAK-1 inhibition is performed in 384-well format based on luminescence assay (ADP-Glo™ Kinase Assay from Promega). Purified human recombinant IRAK1 ([…]) and serial diluted compounds in DMSO (range of concentration from 10 μM to 0.5 nM) or controls (1% DMSO) are incubated for 15 minutes at RT in assay buffer containing 50 mM Hepes pH 7.0, Fatty acid-free BSA 0.1%, Dithiothreitol (DTT) 2 mM, MgCl2 10 mM, EGTA 0.5 mM, Triton X-100 0.01%. The kinase reaction is then initiated by the addition of ATP at a concentration of 1 μM. After 2 hours of incubation at RT, the reaction is stopped and the unconsumed ATP depleted by the addition of ADP-Glo™ Reagent according to supplier instructions. After 40 minutes of incubation at RT, the Kinase Detection Reagent is then added to the assay plate according to supplier instructions. After 20 minutes of incubation at RT, the luminescence signal is measured with a luminometer (PerkinElmer Envision or equivalent reader).
(In general: ADP-Glo first removes unused ATP, then detects ADP through luciferase.)

This is an account of results in patent US9969710B2, “Heteroaryl compounds as IRAK inhibitors and uses thereof” (Merck Patent GmbH, priority 2015, dated 2018).

SMILES strings stand for the structures. Where only a bound is given, the exact number is not on record here.

T2 sequence (P51617 194-712): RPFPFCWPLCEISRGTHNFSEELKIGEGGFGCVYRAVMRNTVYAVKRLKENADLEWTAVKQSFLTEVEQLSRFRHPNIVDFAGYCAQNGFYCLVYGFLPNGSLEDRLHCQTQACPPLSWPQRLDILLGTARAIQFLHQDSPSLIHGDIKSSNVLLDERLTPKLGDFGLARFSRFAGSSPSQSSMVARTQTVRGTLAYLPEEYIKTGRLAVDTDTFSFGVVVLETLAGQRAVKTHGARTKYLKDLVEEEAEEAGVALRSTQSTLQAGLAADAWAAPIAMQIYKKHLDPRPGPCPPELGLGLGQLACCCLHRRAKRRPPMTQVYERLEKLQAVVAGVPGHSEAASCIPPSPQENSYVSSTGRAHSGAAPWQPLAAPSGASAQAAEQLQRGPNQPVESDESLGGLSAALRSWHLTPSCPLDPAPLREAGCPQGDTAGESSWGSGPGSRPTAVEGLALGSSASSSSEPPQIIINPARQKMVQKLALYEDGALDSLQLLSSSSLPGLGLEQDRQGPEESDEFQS

In the case of `Cn1cncc(-c2ccc3c(c2)[nH]/c(=N\C(=O)c2cccc(C(F)(F)F)c2)n3CCCO)c1=O` [Compound 5, (E)-N-(1-(3-hydroxypropyl)-5-(1-methyl-6-oxo-1,6-dihydropyrimidin-5-yl)-1H-benzo[d]imidazol-2(3H)-ylidene)-3-(trifluoromethyl)benzamide], the IC50 in test [1] (Homo sapiens, PBMC) is 100 to 1000 nM; in test [2], at most 100 nM; in test [3], 100 to 1000 nM.

Regarding `CC(=O)N1CCC(c2ccc3c(c2)[nH]/c(=N\C(=O)c2cccc(C(F)(F)F)c2)n3CCCO)CC1` [Compound 13, (E)-N-(5-(1-acetylpiperidin-4-yl)-1-(3-hydroxypropyl)-1H-benzo[d]imidazol-2(3H)-ylidene)-3-(trifluoromethyl)benzamide], the IC50 in test [1] (Homo sapiens, PBMC) is 100 to 1000 nM; in test [2] it was at most 100 nM; in test [3], at most 100 nM.

As to `CN1CCC(c2ccc3c(c2)[nH]/c(=N\C(=O)c2cccc(C(F)(F)F)c2)n3CC(O)CO)C1=O` (single isomer, unassigned) [Compound 20b], the IC50 in test [1] is 1000 to 10000 nM; in test [2] it was at most 100 nM; in test [3] it was 100 to 1000 nM.

In the case of `CN1CCC(C)(c2ccc3c(c2)nc(NC(=O)c2cccc(C(F)(F)F)c2)n3CCCO)C1=O` (single isomer, unassigned) [Compound 29a], the IC50 was 1000 to 10000 nM in test [1], at most 100 nM in test [2] and 1000 to 10000 nM in test [3].

For the molecule `CN1C(=O)CCC1(C)c1ccc2c(c1)nc(NC(=O)c1cccc(C(F)(F)F)c1)n2CCCO` (single isomer, unassigned) [Compound 32a], the IC50 in test [1] (Homo sapiens, PBMC) is 1000 to 10000 nM; in test [2], at most 100 nM; in test [3] it was 100 to 1000 nM.

Turning to `CN1CCCC(c2ccc3c(c2)[nH]/c(=N\C(=O)c2cccc(C(F)(F)F)c2)n3CCC(O)CO)C1=O` (single isomer, unassigned) [Compound 22d], the IC50 in test [1] is 100 to 1000 nM; in test [2], at most 100 nM; in test [3], 100 to 1000 nM.

For the molecule `CN1C(=O)CC[C@@]1(C)c1ccc2c(c1)nc(NC(=O)c1cccc(C(F)F)c1)n2CCCO` [Compound 31b, 3-(difluoromethyl)-N-{5-[(2S)-1,2-dimethyl-5-oxopyrrolidin-2-yl]-1-(3-hydroxypropyl)-1H-1,3-benzodiazol-2-yl}benzamide], the IC50 in test [1] (Homo sapiens, PBMC) is 1000 to 10000 nM; in test [2], at most 100 nM; in test [3], 1000 to 10000 nM.

Regarding `CN1CCC[C@@H](c2ccc3c(c2)[nH]/c(=N\C(=O)c2cccc(C(F)F)c2)n3C[C@](C)(F)CO)C1=O` (single isomer, unassigned) [Compound 3b], the IC50 was 100 to 1000 nM in test [1] (Homo sapiens, PBMC); at most 100 nM in test [2]; 1000 to 10000 nM in test [3].

`CN1CCC(c2ccc3c(c2)[nH]/c(=N\C(=O)c2cccc(C(F)(F)F)c2)n3CCC(O)CO)C1=O` (single isomer, unassigned) [Compound 21b]: the results for the half-inhibitory concentration (IC50) in test [1], in test [2] and in test [3] were 100 to 1000 nM, at most 100 nM and 100 to 1000 nM, respectively.

On to `CN1CCC(c2ccc3c(c2)[nH]/c(=N\C(=O)c2cccc(C(F)(F)F)c2)n3CCC(O)CO)C1=O` (single isomer, unassigned) [Compound 21a], for which the IC50 in test [1] (Homo sapiens, PBMC) is 100 to 1000 nM; in test [2], at most 100 nM; in test [3], 100 to 1000 nM.

`C=CCCn1/c(=N/C(=O)c2cccc(C(F)(F)F)c2)[nH]c2cc(C3CCN(C)C3=O)ccc21` (stereo not drawn) [Compound 17, N-[1-But-3-enyl-5-(1-methyl-2-oxo-pyrrolidin-3-yl)-1,3-dihydro-benzoimidazol-(2E)-ylidene]-3-trifluoromethyl-benzamide]: the IC50 in test [1] (Homo sapiens, PBMC) is 100 to 1000 nM; in test [2], at most 100 nM; in test [3] it was 100 to 1000 nM.

As for `CN1CCCC(c2ccc3c(c2)[nH]/c(=N\C(=O)c2cccc(C(F)(F)F)c2)n3CCCO)C1=O` (stereo not drawn) [Compound 1, (E)-N-(1-(3-hydroxypropyl)-5-(1-methyl-2-oxopiperidin-3-yl)-1H-benzo[d]imidazol-2(3H)-ylidene)-3-(trifluoromethyl)benzamide], the IC50 is at most 100 nM in test [1] (Homo sapiens, PBMC); at most 100 nM in test [2]; at most 100 nM in test [3].

As for `CN1CC[C@@](C)(c2ccc3c(c2)nc(NC(=O)c2cccc(C(F)F)c2)n3CCCO)C1=O` [Compound 30b, N-{5-[(3S)-1,3-dimethyl-2-oxopyrrolidin-3-yl]-1-(3-hydroxypropyl)-1H-1,3-benzodiazol-2-yl}-3-(diifluoromethyl)benzamide], the IC50 in test [1] (Homo sapiens, PBMC) was 1000 to 10000 nM; in test [2], at most 100 nM; in test [3], 100 to 1000 nM.

Take `CN1CCC(c2ccc3c(c2)nc(NC(=O)c2cccc(C(F)(F)F)c2)n3CCCO)C1=O` (stereo not drawn) [Compound 23, N-[1-(3-hydroxypropyl)-5-(1-methyl-2-oxopyrrolidin-3-yl)-1H-1,3-benzodiazol-2-yl]-3-(trifluoromethyl)benzamide]: the IC50 in test [1] (Homo sapiens, PBMC) is at most 100 nM; in test [2], at most 100 nM; in test [3], 100 to 1000 nM.

Turning to `CN1CCC[C@@H](c2ccc3c(c2)[nH]/c(=N\C(=O)c2cccc(C(F)(F)F)c2)n3CCCO)C1=O` [Compound 1a, (S,E)-N-(1-(3-hydroxypropyl)-5-(1-methyl-2-oxopiperidin-3-yl)-1H-benzo[d]imidazol-2(3H)-ylidene)-3-(trifluoromethyl)benzamide], the IC50 in test [1] (Homo sapiens, PBMC) was at most 100 nM; in test [2], at most 100 nM; in test [3], at most 100 nM.

For the molecule `CN1CCCC(c2ccc3c(c2)[nH]/c(=N\C(=O)c2cccc(C(F)(F)F)c2)n3CCC(O)CO)C1=O` (single isomer, unassigned) [Compound 22a], the IC50 in test [1] is at most 100 nM; in test [2], at most 100 nM; in test [3] it was 100 to 1000 nM.

For `CC(=O)N1CCCC(c2ccc3c(c2)[nH]/c(=N\C(=O)c2cccc(C(F)(F)F)c2)n3CCCO)C1` (stereo not drawn) [Compound 14, (E)-N-(5-(1-acetylpiperidin-3-yl)-1-(3-hydroxypropyl)-1H-benzo[d]imidazol-2(3H)-ylidene)-3-(trifluoromethyl)benzamide], the IC50 in test [1] (Homo sapiens, PBMC) is at most 100 nM; in test [2], at most 100 nM; in test [3] it was at most 100 nM.

For `CN1CCC(c2ccc3c(c2)[nH]/c(=N\C(=O)c2cccc(C(F)(F)F)c2)n3CCC(O)CO)C1=O` (stereo not drawn) [Compound 21, N-[1-(3,4-Dihydroxy-butyl)-5-(1-methyl-2-oxo-pyrrolidin-3-yl)-1,3-dihydro-benzoimidazol-(2E)-ylidene]-3-trifluoromethyl-benzamide], the IC50 in test [1] (Homo sapiens, PBMC) was at most 100 nM; in test [2] it was at most 100 nM; in test [3], 100 to 1000 nM.

In general, IC50 refers to the concentration that gives 50% inhibition.
